Like-named read-outs stand apart in the source and are kept apart here.
Key:
[1] = biological target: T1, HCV NS3/4A protease complex, BMS strain (UniProt P27958, species not given/STRAIN_BMS); test: FRET peptide assay to monitor HCV NS3/4A proteolytic activity (BMS strain); format: biochemical, Hepatitis C virus (genotype 1a)
T1 construct: said of H77 and J4L6S; fused on or other part: A three-lysine solubilising tail at the C-terminus of NS4A and a His tag (pET21b, Ni-NTA purification)
Method in brief: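 Recombinant NS3/4A complexes (aa 1027–1711) from H77 (1a) and J4L6S (1b) carried a three-lysine tail, C1711G and C1454S. They were expressed in E. coli BL21(DE3) (0.5 mM IPTG, 22 h, 20 °C), then purified by Ni-NTA and Superdex-S200 to >90% purity. The BMS strain was a genotype 1a clone from patient serum.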

[2] = biological target: T2, HCV NS3/4A protease complex, H77 strain (Hepatitis C virus genotype 1a, UniProt P27958, C1454S/C1711G); test: FRET peptide assay to monitor HCV NS3/4A proteolytic activity (H77 strain); format: biochemical
T2 construct: DNA encoding the recombinant HCV NS3/4A protease complex (amino acids 1027 to 1711) for these strains; inferred from the pET21b vector and Ni-NTA purification; made in house; host or cells: Escherichia coli BL21 (DE3), pET21b
Source text: HCV NS3 protease complexes, derived from the BMS strain, H77 strain or J4L6S strain, were generated, as described below. These purified recombinant proteins were generated for use in a homogeneous assay (see below) to provide an indication of how effective compounds of the present disclosure would be in inhibiting HCV NS3 proteolytic activity.
Serum from an HCV-infected patient was obtained from Dr. T. Wright, San Francisco Hospital. An engineered full-length cDNA (compliment deoxyribonucleic acid) template of the HCV genome (BMS strain) was constructed from DNA fragments obtained by reverse transcription-PCR (RT-PCR) of serum RNA (ribonucleic acid) and using primers selected on the basis of homology between other genotype 1a strains. From the determination of the entire genome sequence, a genotype 1a was assigned to the HCV isolate according to the classification of Simmonds et al. (See P Simmonds, K A Rose, S Graham, S W Chan, F McOmish, B C Dow, E A Follett, P L Yap and H Marsden, J. Clin. Microbiol., 31(6), 1493-1503 (1993)). […]

[3] = biological target: T3, human liver cathepsin B (Homo sapiens, UniProt P07858); test: Specificity assay, cathepsin B; format: biochemical; conditions: read-out: Cathepsin B activity in the specificity assays
T3 construct: purchased Sigma or EMDbiosciences; host or cells: human liver (as named)
Description: The specificities of compounds of the present disclosure were determined against a variety of serine proteases: human neutrophil elastase (HNE), porcine pancreatic elastase (PPE) and human pancreatic chymotrypsin and one cysteine protease: human liver cathepsin B. In all cases, a 96-well plate format protocol using colorimetric p-nitroaniline (pNA) substrate or fluorometric Amino-Methyl-Coumarin (AMC) substrate, specific for each enzyme was used as described previously (PCT Patent Application No. WO 00/09543) with some modifications. All enzymes were purchased from Sigma or EMDbiosciences while the substrates were from Bachem.
Each pNA assay included a 2 h enzyme-inhibitor pre-incubation at room temperature followed by addition of substrate and hydrolysis to ˜15% conversion as measured on a Spectramax Pro microplate reader. The cathepsin B assay was initiated by adding substrate to a 10 min enzyme-inhibitor pre-incubation at room temperature, and the assay plate measured immediately using the Cytofluor Series 4000. Compound concentrations varied from 100 to 0.4 μM depending on their potency.
The final conditions for each assay were as follows: […]
The percentage of inhibition was calculated using the formula: [1−((UVinh−UVblank)/(UVctl−UVblank))]×100 […]

T1 sequence (P27958 1027-1657, change not shown, one chain of several): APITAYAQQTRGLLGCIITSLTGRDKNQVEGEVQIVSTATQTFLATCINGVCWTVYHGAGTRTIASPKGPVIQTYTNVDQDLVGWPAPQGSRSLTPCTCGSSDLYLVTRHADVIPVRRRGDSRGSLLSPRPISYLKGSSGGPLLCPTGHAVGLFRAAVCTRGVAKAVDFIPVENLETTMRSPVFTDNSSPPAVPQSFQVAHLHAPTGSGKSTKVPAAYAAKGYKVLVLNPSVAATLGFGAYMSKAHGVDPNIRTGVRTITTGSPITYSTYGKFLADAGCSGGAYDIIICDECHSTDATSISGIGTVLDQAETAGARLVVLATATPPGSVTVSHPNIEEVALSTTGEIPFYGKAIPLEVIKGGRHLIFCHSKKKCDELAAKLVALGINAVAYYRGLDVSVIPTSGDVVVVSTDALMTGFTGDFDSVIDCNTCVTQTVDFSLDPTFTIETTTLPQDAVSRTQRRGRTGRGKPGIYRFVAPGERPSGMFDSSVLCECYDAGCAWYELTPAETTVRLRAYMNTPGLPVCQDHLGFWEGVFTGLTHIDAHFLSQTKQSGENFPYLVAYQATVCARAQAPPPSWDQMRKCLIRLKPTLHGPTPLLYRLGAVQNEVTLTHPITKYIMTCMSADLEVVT
T2 sequence (P27958 1027-1711 C1454S/C1711G, one chain of several): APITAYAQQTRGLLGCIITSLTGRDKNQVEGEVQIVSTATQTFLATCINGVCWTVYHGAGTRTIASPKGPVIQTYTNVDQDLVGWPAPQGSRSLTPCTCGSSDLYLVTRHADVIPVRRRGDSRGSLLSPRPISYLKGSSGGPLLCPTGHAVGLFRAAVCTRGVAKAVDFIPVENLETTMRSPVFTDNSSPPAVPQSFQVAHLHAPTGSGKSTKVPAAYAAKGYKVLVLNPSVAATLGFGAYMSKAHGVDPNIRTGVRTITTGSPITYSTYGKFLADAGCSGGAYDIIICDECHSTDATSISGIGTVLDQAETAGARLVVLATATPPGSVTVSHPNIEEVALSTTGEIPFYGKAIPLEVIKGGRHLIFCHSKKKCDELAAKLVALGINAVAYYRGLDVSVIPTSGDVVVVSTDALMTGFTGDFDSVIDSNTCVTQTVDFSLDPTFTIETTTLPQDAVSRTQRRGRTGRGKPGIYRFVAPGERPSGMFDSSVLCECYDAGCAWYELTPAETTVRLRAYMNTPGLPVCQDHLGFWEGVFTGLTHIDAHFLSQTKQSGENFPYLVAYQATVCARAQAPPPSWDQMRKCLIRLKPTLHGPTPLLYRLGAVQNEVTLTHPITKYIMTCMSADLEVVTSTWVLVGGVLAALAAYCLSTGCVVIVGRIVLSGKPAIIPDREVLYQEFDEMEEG

## CC(C)(C)OC(=O)N[C@H]1CCCCC/C=C\[C@@H]2C[C@@]2(C(=O)NS(=O)(=O)C2CC2)NC(=O)[C@@H]2C[C@@H](OC(=O)c3ccc(C#N)cc3)CN2C1=O [Compound 26, 18-(4-cyanobenzoyloxy)-14-tert-butoxycarbonylamino-4-cyclopropylsulfonylaminocarbonyl-2,15-dioxo-3,16-diazatricyclo-[14.3.0.0^4,6]-nonadec-7-ene]
[1]; BMS strain, read-out: IC50 against the NS3/4A BMS strain in the enzyme assay
  IC50: 0.78 nM
[1]; NS3/4A BMS strain, read-out: IC50 Range
  IC50: < 100 nM
[2]
  IC50: 0.53 nM
[3]
  IC50: ≥ 100000 nM
